Measurements as given in ChEMBL document CHEMBL1128686, “Technetium-99m-labeled HOE 140: a potential bradykinin B2 receptor imaging agent” (J Med Chem, 1995).
Each block holds one compound with its values, some of them ahead of it.

How the values were obtained:
[1] = molecular target: T1, B2 bradykinin receptor (Cavia porcellus, UniProt O70526); assay: In vitro antagonistic activity for Bradykinin receptor B2 by guinea pig ileal membrane receptor assay.; format: functional
T1 sequence (O70526 whole entry): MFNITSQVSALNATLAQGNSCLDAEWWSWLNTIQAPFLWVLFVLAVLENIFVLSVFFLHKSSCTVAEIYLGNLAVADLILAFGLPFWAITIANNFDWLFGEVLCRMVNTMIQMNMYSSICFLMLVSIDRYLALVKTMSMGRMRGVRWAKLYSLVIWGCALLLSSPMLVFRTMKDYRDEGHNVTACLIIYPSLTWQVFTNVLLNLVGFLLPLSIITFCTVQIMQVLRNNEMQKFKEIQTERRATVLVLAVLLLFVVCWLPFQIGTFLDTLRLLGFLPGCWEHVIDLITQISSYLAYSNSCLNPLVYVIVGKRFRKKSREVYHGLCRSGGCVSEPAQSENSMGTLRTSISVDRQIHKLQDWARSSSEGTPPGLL

[2] = molecular target: T1, B2 bradykinin receptor; assay: In vitro antagonistic activity for Bradykinin receptor B2 by guinea pig pulmonary artery assay.; format: functional
[3] = system: Rattus norvegicus; assay: Distribution in bladder and urine of healthy rat 24 hr after iv injection into the femoral vein; format: ADME, organism-based, Urinary bladder/Urine; conditions: in vivo
[4] = system: Rattus norvegicus; assay: Distribution in bladder and urine of healthy rat 30 min after iv injection into the femoral vein; format: ADME, organism-based, Urinary bladder/Urine; conditions: in vivo, 0.5 h
[5] = system: Rattus norvegicus; assay: Distribution in bladder and urine of healthy rat 4 hr after iv injection into the femoral vein; format: ADME, organism-based, Urinary bladder/Urine; conditions: in vivo
[6] = system: Rattus norvegicus; assay: Distribution in bladder and urine of healthy rat 5 min after iv injection into the femoral vein; format: ADME, organism-based, Urinary bladder/Urine; conditions: in vivo
[7] = system: Rattus norvegicus; assay: Distribution in blood of healthy rat 15 min after iv injection into the femoral vein; format: ADME, organism-based; conditions: in vivo, 0.25 h
[8] = system: Rattus norvegicus; assay: Distribution in blood of healthy rat 24 hr after iv injection into the femoral vein; format: ADME, organism-based; conditions: in vivo
[9] = system: Rattus norvegicus; assay: Distribution in blood of healthy rat 30 min after iv injection into the femoral vein; format: ADME, organism-based; conditions: in vivo, 0.5 h
[10] = system: Rattus norvegicus; assay: Distribution in blood of healthy rat 4 hr after iv injection into the femoral vein; format: ADME, organism-based; conditions: in vivo
[11] = system: Rattus norvegicus; assay: Distribution in blood of healthy rat 5 min after iv injection into the femoral vein; format: ADME, organism-based; conditions: in vivo
[12] = system: Rattus norvegicus; assay: Distribution in colon of healthy rat 15 min after iv injection into the femoral vein; format: ADME, organism-based; conditions: in vivo, 0.25 h
[13] = system: Rattus norvegicus; assay: Distribution in colon of healthy rat 24 hr after iv injection into the femoral vein; format: ADME, organism-based; conditions: in vivo
[14] = system: Rattus norvegicus; assay: Distribution in colon of healthy rat 30 min after iv injection into the femoral vein; format: ADME, organism-based; conditions: in vivo, 0.5 h
[15] = system: Rattus norvegicus; assay: Distribution in colon of healthy rat 4 hr after iv injection into the femoral vein; format: ADME, organism-based; conditions: in vivo
[16] = system: Rattus norvegicus; assay: Distribution in colon of healthy rat 5 min after iv injection into the femoral vein; format: ADME, organism-based; conditions: in vivo
[17] = system: Rattus norvegicus; assay: Distribution in content of colon of healthy rat 15 min after iv injection into the femoral vein; format: ADME, organism-based; conditions: in vivo, 0.25 h
[18] = system: Rattus norvegicus; assay: Distribution in content of colon of healthy rat 24 hr after iv injection into the femoral vein; format: ADME, organism-based; conditions: in vivo
[19] = system: Rattus norvegicus; assay: Distribution in content of colon of healthy rat 30 min after iv injection into the femoral vein; format: ADME, organism-based; conditions: in vivo, 0.5 h
[20] = system: Rattus norvegicus; assay: Distribution in content of colon of healthy rat 4 hr after iv injection into the femoral vein; format: ADME, organism-based; conditions: in vivo
[21] = system: Rattus norvegicus; assay: Distribution in content of colon of healthy rat 5 min after iv injection into the femoral vein; format: ADME, organism-based; conditions: in vivo
[22] = system: Rattus norvegicus; assay: Distribution in content of small intestine of healthy rat 15 min after iv injection into the femoral vein; format: ADME, organism-based; conditions: in vivo, 0.25 h
[23] = system: Rattus norvegicus; assay: Distribution in content of small intestine of healthy rat 30 min after iv injection into the femoral vein; format: ADME, organism-based; conditions: in vivo, 0.5 h
[24] = system: Rattus norvegicus; assay: Distribution in content of small intestine of healthy rat 4 hr after iv injection into the femoral vein; format: ADME, organism-based; conditions: in vivo
[25] = system: Rattus norvegicus; assay: Distribution in content of small intestine of healthy rat 5 min after iv injection into the femoral vein; format: ADME, organism-based; conditions: in vivo
[26] = Distribution in feces of healthy rat 24 hr after iv injection into the femoral vein; format: ADME, organism-based; conditions: faeces, read-out: Organ distribution
[27] = system: Rattus norvegicus; assay: Distribution in lung of healthy rat 24 hr after iv injection into the femoral vein; format: ADME, organism-based; conditions: in vivo
[28] = system: Rattus norvegicus; assay: Distribution in lung of healthy rat 30 min after iv injection into the femoral vein; format: ADME, organism-based; conditions: in vivo, 0.5 h
[29] = system: Rattus norvegicus; assay: Distribution in lung of healthy rat 4 hr after iv injection into the femoral vein; format: ADME, organism-based; conditions: in vivo
[30] = system: Rattus norvegicus; assay: Distribution in lung of healthy rat 5 min after iv injection into the femoral vein; format: ADME, organism-based; conditions: in vivo
[31] = system: Rattus norvegicus; assay: Distribution in small intestine of healthy rat 15 min after iv injection into the femoral vein; format: ADME, organism-based; conditions: in vivo, 0.25 h
[32] = system: Rattus norvegicus; assay: Distribution in small intestine of healthy rat 24 hr after iv injection into the femoral vein; format: ADME, organism-based; conditions: in vivo
[33] = system: Rattus norvegicus; assay: Distribution in small intestine of healthy rat 30 min after iv injection into the femoral vein; format: ADME, organism-based; conditions: in vivo, 0.5 h
[34] = system: Rattus norvegicus; assay: Distribution in small intestine of healthy rat 4 hr after iv injection into the femoral vein; format: ADME, organism-based; conditions: in vivo
[35] = system: Rattus norvegicus; assay: Distribution in small intestine of healthy rat 5 min after iv injection into the femoral vein; format: ADME, organism-based; conditions: in vivo
[36] = system: Rattus norvegicus; assay: Distribution in spleen of healthy rat 15 min after iv injection into the femoral vein; format: ADME, organism-based; conditions: in vivo, 0.25 h
[37] = system: Rattus norvegicus; assay: Distribution in spleen of healthy rat 24 hr after iv injection into the femoral vein; format: ADME, organism-based; conditions: in vivo
[38] = system: Rattus norvegicus; assay: Distribution in spleen of healthy rat 30 min after iv injection into the femoral vein; format: ADME, organism-based; conditions: in vivo, 0.5 h
[39] = system: Rattus norvegicus; assay: Distribution in spleen of healthy rat 4 hr after iv injection into the femoral vein; format: ADME, organism-based; conditions: in vivo
[40] = system: Rattus norvegicus; assay: Distribution in stomach of healthy rat 15 min after iv injection into the femoral vein; format: ADME, organism-based; conditions: in vivo, 0.25 h
[41] = system: Rattus norvegicus; assay: Distribution in stomach of healthy rat 24 hr after iv injection into the femoral vein; format: ADME, organism-based; conditions: in vivo
[42] = system: Rattus norvegicus; assay: Distribution in stomach of healthy rat 30 min after iv injection into the femoral vein; format: ADME, organism-based; conditions: in vivo, 0.5 h
[43] = system: Rattus norvegicus; assay: Distribution in stomach of healthy rat 4 hr after iv injection into the femoral vein; format: ADME, organism-based; conditions: in vivo
[44] = system: Rattus norvegicus; assay: Distribution in stomach of healthy rat 5 min after iv injection into the femoral vein; format: ADME, organism-based; conditions: in vivo
[45] = system: Rattus norvegicus; assay: Distribution in thyroid gland of healthy rat 15 min after iv injection into the femoral vein; format: ADME, organism-based; conditions: in vivo, 0.25 h
[46] = system: Rattus norvegicus; assay: Distribution in thyroid gland of healthy rat 24 hr after iv injection into the femoral vein; format: ADME, organism-based; conditions: in vivo
[47] = system: Rattus norvegicus; assay: Distribution in thyroid gland of healthy rat 30 min after iv injection into the femoral vein; format: ADME, organism-based; conditions: in vivo, 0.5 h
[48] = system: Rattus norvegicus; assay: Distribution in thyroid gland of healthy rat 4 hr after iv injection into the femoral vein; format: ADME, organism-based; conditions: in vivo
[49] = system: Rattus norvegicus; assay: Distribution in thyroid gland of healthy rat 5 min after iv injection into the femoral vein; format: ADME, organism-based; conditions: in vivo
[50] = system: Rattus norvegicus; assay: Distribution in lung of healthy rat 15 min after iv injection into the femoral vein; format: ADME, organism-based; conditions: in vivo, 0.25 h
[51] = system: Rattus norvegicus; assay: Distribution in kidney of healthy rat 15 min after iv injection into the femoral vein; format: ADME, organism-based; conditions: in vivo, 0.25 h
[52] = system: Rattus norvegicus; assay: Distribution in kidney of healthy rat 24 hr after iv injection into the femoral vein; format: ADME, organism-based; conditions: in vivo
[53] = system: Rattus norvegicus; assay: Distribution in kidney of healthy rat 4 hr after iv injection into the femoral vein; format: ADME, organism-based; conditions: in vivo
[54] = system: Rattus norvegicus; assay: Distribution in kidney of healthy rat 5 min after iv injection into the femoral vein; format: ADME, organism-based; conditions: in vivo
[55] = system: Rattus norvegicus; assay: Distribution in liver of healthy rat 15 min after iv injection into the femoral vein; format: ADME, organism-based; conditions: in vivo, 0.25 h
[56] = system: Rattus norvegicus; assay: Distribution in liver of healthy rat 24 hr after iv injection into the femoral vein; format: ADME, organism-based; conditions: in vivo
[57] = system: Rattus norvegicus; assay: Distribution in liver of healthy rat 30 min after iv injection into the femoral vein; format: ADME, organism-based; conditions: in vivo, 0.5 h
[58] = system: Rattus norvegicus; assay: Distribution in liver of healthy rat 4 hr after iv injection into the femoral vein; format: ADME, organism-based; conditions: in vivo
[59] = system: Rattus norvegicus; assay: Distribution in liver of healthy rat 5 min after iv injection into the femoral vein; format: ADME, organism-based; conditions: in vivo
[60] = system: Rattus norvegicus; assay: Distribution in spleen of healthy rat 5 min after iv injection into the femoral vein; format: ADME, organism-based; conditions: in vivo
[61] = system: Rattus norvegicus; assay: Distribution in kidney of healthy rat 30 min after iv injection into the femoral vein; format: ADME, organism-based; conditions: in vivo, 0.5 h
[62] = system: Rattus norvegicus; assay: Distribution in bladder and urine of healthy rat 15 min after iv injection into the femoral vein; format: ADME, organism-based, Urinary bladder/Urine; conditions: in vivo, 0.25 h
[63] = system: Rattus norvegicus; assay: Distribution in content of small intestine of healthy rat 24 hr after iv injection into the femoral vein; format: ADME, organism-based; conditions: in vivo

IC50 [1]: 8.03 nM
IC50 [2]: 14 nM
Organ distribution [3]: 79.9%
Organ distribution [4]: 33%
Organ distribution [5]: 74.9%
Organ distribution [6]: 3.83%
Organ distribution [7]: 8.62%
Organ distribution [8]: 0.5%
Organ distribution [9]: 5.5%
Organ distribution [10]: 0.5%
Organ distribution [11]: 13.2%
Organ distribution [12]: 0.65%
Organ distribution [13]: 0.09%
Organ distribution [14]: 0.48%
Organ distribution [15]: 0.44%
Organ distribution [16]: 1%
Organ distribution [17]: 0.2%
Organ distribution [18]: 0.56%
Organ distribution [19]: 0.17%
Organ distribution [20]: 6.96%
Organ distribution [21]: 0.22%
Organ distribution [22]: 2.79%
Organ distribution [23]: 4.84%
Organ distribution [24]: 1.85%
Organ distribution [25]: 1.83%
dose excreted at 24 h [26]: 8.4%
Organ distribution [27]: 0.04%
Organ distribution [28]: 0.55%
Organ distribution [29]: 0.1%
Organ distribution [30]: 1.2%
Organ distribution [31]: 3.74%
Organ distribution [32]: 0.19%
Organ distribution [33]: 1.67%
Organ distribution [34]: 0.71%
Organ distribution [35]: 2.92%
Organ distribution [36]: 0.19%
Organ distribution [37]: 0.08%
Organ distribution [38]: 0.19%
Organ distribution [39]: 0.12%
Organ distribution [40]: 1.13%
Organ distribution [41]: 0.06%
Organ distribution [42]: 0.91%
Organ distribution [43]: 0.46%
Organ distribution [44]: 1.55%
Organ distribution [45]: 0.11%
Organ distribution [46]: 0.01%
Organ distribution [47]: 0.11%
Organ distribution [48]: 0.02%
Organ distribution [49]: 0.12%
Organ distribution [50]: 0.82%
Organ distribution [51]: 7%
Organ distribution [52]: 3.07%
Organ distribution [53]: 4.33%
Organ distribution [54]: 8.46%
Organ distribution [55]: 4.48%
Organ distribution [56]: 2.72%
Organ distribution [57]: 4.31%
Organ distribution [58]: 5.03%
Organ distribution [59]: 5.25%
Organ distribution [60]: 0.27%
Organ distribution [61]: 8.86%
Organ distribution [62]: 20.3%
Organ distribution [63]: 0.06%
Compound: N=C(N)NCCC[C@H](NC(=O)[C@@H]1C[C@@H]2CCCC[C@@H]2N1C(=O)[C@H]1Cc2ccccc2CN1C(=O)[C@H](CO)NC(=O)[C@H](Cc1cccs1)NC(=O)CNC(=O)[C@@H]1C[C@@H](O)CN1C(=O)[C@@H]1CCCN1C(=O)[C@H](CCCNC(=N)N)NC(=O)[C@@H](CCCNC(=N)N)NC(=O)c1ccc(CN2CCCNCCNCCCNCC2)cc1)C(=O)O

IC50 [1]: 1.07 nM
Compound: NC(N)=NCCC[C@@H](N)C(=O)N[C@@H](CCCN=C(N)N)C(=O)N1CCC[C@H]1C(=O)N1C[C@H](O)C[C@H]1C(=O)NCC(=O)N[C@@H](Cc1cccs1)C(=O)N[C@@H](CO)C(=O)N1Cc2ccccc2C[C@@H]1C(=O)N1[C@H](C(=O)N[C@@H](CCCN=C(N)N)C(=O)O)C[C@@H]2CCCC[C@@H]21 [ICATIBANT]
